Laboratory results from publication PMC5884652, “New antimicrobial peptide kills drug-resistant pathogens without detectable resistance” (Oncotarget, 2018).
≈ marks a conversion by molar mass, not a printed value.

Columns and labels:
Experiment in all cases: microbe, parasite or virus in culture
S. aureus 0027 = type: cell-based, Staphylococcus aureus; details: Staphylococcus aureus, 0027; pH (I or II) not given; 10 mM sodium phosphate buffer, 10% LB; 37° C, 24 h; mean of 3 experiments
Text: (§1) The method for peptide synthesis has been described in detail previously. E. coli ATCC 25922 (LB media), P. aeruginosa ATCC 15692 (NB+0.5% NaCl media), Listeria monocytogenes ATCC 3710 (LB media), Staphylococcus epidermidis ATCC 12228 (LB media), and S. aureus ATCC 29213 (TSB media) were obtained from the American Type Culture Collection (Manassas, VA, USA). Bacillus subtilis KCTC 1998 (LB media), Salmonella typhimurium KCTC 1926 (NB media), and Proteus vulgaris KCTC 2433 (NB media) were obtained from the Korean Collection for Type Cultures (Jeollabuk-do, Korea). E. coli CCARM 1238 was received from the Culture Collection of Antibiotic Resistant Microbes at Seoul Women’s University, Korea. Drug-resistant P. aeruginosa 3543, 3904, 3547, and 4007 and S. aureus 3126, 0027, 5157, 1635, 4761, 5159, 3359, 2122, 1630, 1870, 3511, 5156, and 3518 were resistant strains isolated from patients with otitis media in a Chonnam National University’s hospital.
(§2) The antibacterial activities of AMPs (melittin, clavaspirin, and its analogs) and conventional antibiotic drugs (erythromycin, gentamicin, ampicillin, and piperacidin) were determined using microdilution assays. Bacterial cells were cultured at 37° C in appropriate culture media at pH 5.5 or pH 7.4 until collection during the mid-log phase and suspended in 10 mM sodium phosphate buffer (pH 5.5 or pH 7.4) supplemented with 10% culture medium. Thereafter, 2× serial dilutions of each peptide (0.25–128 μM) or antibiotic (0.25–256 μM) were added to sterile 96-well plates, and aliquots of cell suspension (5 × 10^5 colony forming units (cfu)/mL) were seeded into each well. The samples were then incubated at 37° C for 24 h. At the end of the incubation, the minimum inhibitory concentrations (MICs) of the peptides were determined using a VERSA Max microplate reader (Molecular Devices Co., Sunnyvale, CA, USA) at a wavelength of 600 nm. […] MIC values were calculated as the mean of 3 independent experiments conducted in triplicate.

S. aureus 1630 = type: cell-based, Staphylococcus aureus; details: Staphylococcus aureus, 1630; pH (I or II) not given; 10 mM sodium phosphate buffer, 10% LB; 37° C, 24 h; mean of 3 experiments
Text: as §1, §2

S. aureus 1635 = type: cell-based, Staphylococcus aureus; details: Staphylococcus aureus, 1635; pH (I or II) not given; 10 mM sodium phosphate buffer, 10% LB; 37° C, 24 h; mean of 3 experiments
Text: as §1, §2

S. aureus 1870 = type: cell-based, Staphylococcus aureus; details: Staphylococcus aureus, 1870; pH (I or II) not given; 10 mM sodium phosphate buffer, 10% LB; 37° C, 24 h; mean of 3 experiments
Text: as §1, §2

S. aureus 2122 = type: cell-based, Staphylococcus aureus; details: Staphylococcus aureus, 2122; pH (I or II) not given; 10 mM sodium phosphate buffer, 10% LB; 37° C, 24 h; mean of 3 experiments
Text: as §1, §2

S. aureus 3126 = type: cell-based, Staphylococcus aureus; details: Staphylococcus aureus, 3126; pH (I or II) not given; 10 mM sodium phosphate buffer, 10% LB; 37° C, 24 h; mean of 3 experiments
Text: as §1, §2

S. aureus 3359 = type: cell-based, Staphylococcus aureus; details: Staphylococcus aureus, 3359; pH (I or II) not given; 10 mM sodium phosphate buffer, 10% LB; 37° C, 24 h; mean of 3 experiments
Text: as §1, §2

S. aureus 3511 = type: cell-based, Staphylococcus aureus; details: Staphylococcus aureus, 3511; pH (I or II) not given; 10 mM sodium phosphate buffer, 10% LB; 37° C, 24 h; mean of 3 experiments
Text: as §1, §2

S. aureus 3518 = type: cell-based, Staphylococcus aureus; details: Staphylococcus aureus, 3518; pH (I or II) not given; 10 mM sodium phosphate buffer, 10% LB; 37° C, 24 h; mean of 3 experiments
Text: as §1, §2

S. aureus 4761 = type: cell-based, Staphylococcus aureus; details: Staphylococcus aureus, 4761; pH (I or II) not given; 10 mM sodium phosphate buffer, 10% LB; 37° C, 24 h; mean of 3 experiments
Text: as §1, §2

S. aureus 5156 = type: cell-based, Staphylococcus aureus; details: Staphylococcus aureus, 5156; pH (I or II) not given; 10 mM sodium phosphate buffer, 10% LB; 37° C, 24 h; mean of 3 experiments
Text: as §1, §2

S. aureus 5157 = type: cell-based, Staphylococcus aureus; details: Staphylococcus aureus, 5157; pH (I or II) not given; 10 mM sodium phosphate buffer, 10% LB; 37° C, 24 h; mean of 3 experiments
Text: as §1, §2

S. aureus 5159 = type: cell-based, Staphylococcus aureus; details: Staphylococcus aureus, 5159; pH (I or II) not given; 10 mM sodium phosphate buffer, 10% LB; 37° C, 24 h; mean of 3 experiments
Text: as §1, §2

P. aeruginosa 3543 = type: cell-based, Pseudomonas aeruginosa; details: pH (I or II) not given; 10 mM sodium phosphate buffer, 10% LB; 37° C, 24 h; mean of 3 experiments
Text: as §1, §2

P. aeruginosa 3547 = type: cell-based, Pseudomonas aeruginosa; details: pH (I or II) not given; 10 mM sodium phosphate buffer, 10% LB; 37° C, 24 h; mean of 3 experiments
Text: as §1, §2

P. aeruginosa 3904 = type: cell-based, Pseudomonas aeruginosa; details: pH (I or II) not given; 10 mM sodium phosphate buffer, 10% LB; 37° C, 24 h; mean of 3 experiments
Text: as §1, §2

P. aeruginosa 4007 = type: cell-based, Pseudomonas aeruginosa; details: pH (I or II) not given; 10 mM sodium phosphate buffer, 10% LB; 37° C, 24 h; mean of 3 experiments
Text: as §1, §2

Structure (SMILES)	MIC (S. aureus 0027) [µM]	MIC (S. aureus 1630) [µM]	MIC (S. aureus 1635) [µM]	MIC (S. aureus 1870) [µM]	MIC (S. aureus 2122) [µM]	MIC (S. aureus 3126) [µM]	MIC (S. aureus 3359) [µM]	MIC (S. aureus 3511) [µM]	MIC (S. aureus 3518) [µM]	MIC (S. aureus 4761) [µM]	MIC (S. aureus 5156) [µM]	MIC (S. aureus 5157) [µM]	MIC (S. aureus 5159) [µM]	MIC (P. aeruginosa 3543) [µM]	MIC (P. aeruginosa 3547) [µM]	MIC (P. aeruginosa 3904) [µM]	MIC (P. aeruginosa 4007) [µM]
CNC(C)C1CCC(N)C(OC2C(N)CC(N)C(OC3OCC(C)(O)C(NC)C3O)C2O)O1 (centres unmarked) [gentamicin]	64 (≈ 30.6 µg/mL)	64 (≈ 30.6 µg/mL)	> 256	16 (≈ 7.64 µg/mL)	128 (≈ 61.1 µg/mL)	32 (≈ 15.3 µg/mL)	64 (≈ 30.6 µg/mL)	> 256	> 256	32 (≈ 15.3 µg/mL)	> 256	16 (≈ 7.64 µg/mL)	16 (≈ 7.64 µg/mL)	–	–	–	–
CCN1CCN(C(=O)N[C@@H](C(=O)N[C@@H]2C(=O)N3[C@@H]2SC(C)(C)[C@@H]3C(=O)O)c2ccccc2)C(=O)C1=O [piperacidin]	–	–	–	–	–	–	–	–	–	–	–	–	–	>800	200 (≈ 104 µg/mL)	>800	>800
